Earlier results in US10513689B2, “Culture media for multipotent stem cells” (Hope Biosciences LLC, priority 2016, dated 2019).

Tested on: MSCs
Conditions: Tamama et al., 2010

EGF: Epidermal growth factor, mitogen of MSCs
increase in the number of colony-forming units: 25%
